Source: US7358359B2, “Antibacterial agents” (University of Washington, priority 2003, dated 2008)
Values after ≈ are worked out from the molar mass of the structure shown.

How the values were obtained:
[1] = biological target: T1, P. aeruginosa LpxC (Pseudomonas aeruginosa, UniProt P47205); assay: P. aeruginosa LpxC Inhibition Assay; type: biochemical; conditions: 2 nM P. aeruginosa LpxC, 90 min, room temperature; read-out: IC50 (nM), Enzyme inhibitory activity
T1 sequence (P47205 1-303): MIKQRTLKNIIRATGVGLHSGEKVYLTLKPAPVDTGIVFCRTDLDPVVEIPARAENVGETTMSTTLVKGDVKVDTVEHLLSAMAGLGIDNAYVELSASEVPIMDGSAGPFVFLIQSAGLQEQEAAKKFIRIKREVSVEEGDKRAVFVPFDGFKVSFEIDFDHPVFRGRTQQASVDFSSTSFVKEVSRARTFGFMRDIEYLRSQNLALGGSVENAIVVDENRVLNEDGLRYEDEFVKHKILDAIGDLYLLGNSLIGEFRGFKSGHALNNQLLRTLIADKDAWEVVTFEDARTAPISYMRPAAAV
Method: The assay followed the general method of Hyland et al (Journal of Bacteriology 1997 179, 2029-2037: Cloning, expression and purification of UDP-3-O-acyl-GlcNAc deacetylase from Pseudomonas aeruginosa: a metalloamidase of the lipid A biosynthesis pathway) and the radiolabeling procedure is according to Kline et al. supra. Briefly, samples were incubated with 2 nM P. aeruginosa LpxC and 150 nM [3H-Ac]-UDP-3-OR-3-hydroxydecanoyl)-GlcNAc in a total volume of 50 uL for 90 min at room temperature. Reactions were carried out in 96-well polypropylene plates in 50 mM sodium phosphate buffer, pH 7.5, containing 1 mg/mL BSA. Reactions were stopped by the addition of 180 uL of a 3% suspension of activated charcoal powder in 100 mM sodium acetate, pH 7.5. Supernatants were clarified by centrifugation. A portion of the clarified supernatant, containing the enzymatically released [3H]-acetate, was transferred to opaque white 96-well plates containing scintillation fluid. The radioactivity was measured in a Perkin-Elmer/Wallac Trilux Microbeta counter.

[2] = system: E. coli 25922; assay: MIC broth microdilution, standard panel: E. coli 25922; type: cell-based; conditions: Escherichia coli, standard panel of organisms
Summary of the method: (§1)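 NCCLS broth microdilution, CAMHB, 2-fold drug series. Inoculum from 0.5 McFarland suspension, final 3×10^5–7×10^5 CFU/mL. 35° C., ambient air, 18-24 h. MIC = lowest conc. with no visible growth.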

[3] = system: Pseudomonas aeruginosa cystic fibrosis isolate 1145; assay: microbe, parasite or virus in culture; type: cell-based; conditions: strain 1145, MDR, LpxC inhibitors, MIC key class, read-out: MIC
Method: (§2) Bacterial isolates were cultivated from −70° C. frozen stocks by two consecutive overnight passages at 35° C. in ambient air on 5% blood agar (Remel, Lenexa, Kans.). Clinical isolates tested were from a collection composed of isolates collected during clinical trials and recent clinical isolates obtained from various geographically diverse hospitals in the US. Quality control and primary panel strains were from the American Type Culture Collection (ATCC; Rockville, Md.), with the exception of P. aeruginosa PAO200, a strain with a deletion of the mexABoprM genes that was received from Dr. H. Schweizer.
(§3) Minimum Inhibitory Concentrations (MICs) were determined by the broth microdilution method in accordance with the National Committee for Clinical Laboratory Standards (NCCLS) guidelines. In brief, organism suspensions were are adjusted to a 0.5 McFarland standard to yield a final inoculum between 3×10^5 and 7×10^5 colony-forming units (CFU)/mL. Drug dilutions and inocula were made in sterile, cation adjusted Mueller-Hinton Broth (Remel). An inoculum volume of 100 μl was added to wells containing 100 μl of broth with 2-fold serial dilutions of drug. All inoculated microdilution trays were incubated in ambient air at 35° C. for 18-24 hours. Following incubation, the lowest concentration of the drug that prevented visible growth was recorded as the MIC.

[4] = system: Pseudomonas aeruginosa cystic fibrosis isolate 3206; assay: microbe, parasite or virus in culture; type: cell-based; conditions: strain 3206, MDR, LpxC inhibitors, MIC key class, read-out: MIC
Method: as §2, §3

[5] = system: Serratia marcescens; assay: MIC vs enteric organisms: Serratia marcescens; type: cell-based; conditions: S. marc., MIC key class
Method: as §2, §3

[6] = system: Klebsiella oxytoca; assay: MIC vs enteric organisms: Klebsiella oxytoca; type: cell-based; conditions: K. oxy., MIC key class
Method: as §2, §3

[7] = system: Pseudomonas aeruginosa cystic fibrosis isolate 3317; assay: MIC vs cystic fibrosis isolate of P. aeruginosa 3317 (resistant to aztreonam); type: cell-based; conditions: strain 3317, Aztr. R, LpxC inhibitors, MIC key class
Method: as §2, §3

[8] = system: Enterobacter aerogenes; assay: MIC vs enteric organisms: Enterobacter aerogenes; type: cell-based; conditions: Klebsiella aerogenes; E. aer.; MIC key class
Method: as §2, §3

[9] = system: Pseudomonas aeruginosa cystic fibrosis isolate 3198; assay: MIC vs cystic fibrosis isolate of P. aeruginosa 3198 (sensitive to most antibacterials); type: cell-based; conditions: strain 3198, Sensitive, LpxC inhibitors, MIC key class
Method: as §2, §3

[10] = system: Burkholderia cepacia; assay: MIC vs non-fermenting organisms: Burkholderia cepacia; type: cell-based; conditions: Burkholderia cepacia, B. cepacia; MIC key class; read-out: MIC
Method: as §2, §3

[11] = system: Proteus mirabilis; assay: MIC vs enteric organisms: Proteus mirabilis; type: cell-based; conditions: P. mir., MIC key class
Method: as §2, §3

[12] = system: Stenotrophomonas maltophilia; assay: MIC vs non-fermenting organisms: Stenotrophomonas maltophilia; type: cell-based; conditions: Stenotrophomonas maltophilia, S. malt.; MIC key class; read-out: MIC
Method: as §2, §3

[13] = system: P. aeruginosa 27853; assay: MIC broth microdilution, standard panel: P. aeruginosa 27853; type: cell-based; conditions: Pseudomonas aeruginosa, standard panel of organisms
Summary of the method: as §1

[14] = system: Alcaligenes xylosoxidans; assay: MIC vs non-fermenting organisms: Alcaligenes xylosoxidans; type: cell-based; conditions: Achromobacter xylosoxidans; Alcal. xyl; MIC key class
Method: as §2, §3

[15] = system: Pseudomonas aeruginosa cystic fibrosis isolate 3224; assay: MIC vs cystic fibrosis isolate of P. aeruginosa 3224; type: cell-based; conditions: strain 3224, Tobra R, LpxC inhibitors, MIC key class
Method: as §2, §3

C[C@@H](O)[C@H](NC(=O)c1ccc(C#CC#Cc2ccc(NC(=O)CNc3ccccn3)cc2)cc1)C(=O)NO [Example 801, N-{(1S,2R)-2-hydroxy-1-[(hydroxyamino)carbonyl]propyl}-4-[4-(4-{[(pyridin-2-ylamino)acetyl]amino}phenyl)buta-1,3-diynyl]benzamide]
IC50 [1]: < 100 nM
MIC [2]: < 6.25 µg/mL
MIC [3]: < 6.25 µg/mL
MIC [4]: < 6.25 µg/mL
MIC [5]: < 6.25 µg/mL
MIC [6]: < 6.25 µg/mL
MIC [7]: < 6.25 µg/mL
MIC [8]: 6.25 to 50 µg/mL (≈ 12.2 to 97.7 µM)
MIC [9]: < 6.25 µg/mL
MIC [10]: 6.25 to 50 µg/mL (≈ 12.2 to 97.7 µM)
MIC [11]: < 6.25 µg/mL
MIC [12]: > 50 µg/mL
MIC [13]: < 6.25 µg/mL
MIC [14]: > 50 µg/mL
MIC [15]: < 6.25 µg/mL
